{
  "source": "patent US20060088533A1",
  "about": "“Methods of treating inflammatory bowel disease” (priority 2004, published 2006)",
  "key": {"NCM460 cells": {"test_system": "NCM460 cells", "experiment": "Cell rounding assay", "format": "cell-based, human", "details": "EGFR antibody 20 μg/ml or AG1478 0.5 μM 30 minutes, then TxB 20 nM 1 hour", "description": "NCM460 cells were seeded on glass cover slides overnight. […] Cells were then fixed with formaldehyde for 10 minutes and rinsed three times in PBS. Percentage of cell rounding was quantitated by phase-contrast microscopy."}, "IL-8 promoter": {"test_system": "IL-8 promoter", "experiment": "IL-8 luciferase promoter assay", "format": "cell-based, human", "details": "NCM460 cells; inhibitor 30 minutes, then TxB 20 nM 16 hours; versus DMSO", "description": "A 1521-bp fragment (nucleotides −1481 to +40) of the promoter region of the human IL-8 gene was used to monitor transcription of IL-8 gene as previously described (Keates, S. et al., J. Biol. Chem., 276:48127-48134 (2001)). Cells were grown on 24-well plates and transiently transfected with the IL-8 promoter luciferase construct and a control luciferase construct pRL-TK (Promega Corp., Madison, Wis.) using Superfect (Qiagen Inc., Chatsworth, Calif.). Transfected cells were serum starved overnight and then exposed to TxB and/or pharmacological inhibitors at the indicated times. Cells were lysed, and firefly and renilla luciferase activities in cell extracts were measured using Dual-Luciferase Reporter Assay System (Promega Corp., Madison, Wis.). The relative luciferase activity was calculated by normalizing IL-8 promoter-driven firefly luciferase activity to control Renilla luciferase activity. Data from all experiments are represented as the relative luciferase activity (mean ±SD) from at least three independent sets of experiments, each with triplicate measurements."}, "ERK1/2": {"test_system": "ERK1/2", "experiment": "Western blot of ERK1/2 phosphorylation in colonocytes exposed to C. difficile toxin or LPA", "format": "cell-based, human", "details": "for TxB's activation of ERK: colonocytes preincubated with BAPTA 20uM or GF109203X 1uM before TxB addition", "description": "NCM460 or HT29 cells were seeded in 12 well plates and grown to 70%-100% confluency. Cells were serum starved overnight prior to experiments. TxB or TxA were added in serum free medium at the indicated concentrations for varying lengths of time. Cells were then washed three times with ice cold phosphate buffered saline (PBS) and lysed in 1×SDS sample buffer (Cell Signaling Technology, Beverly, Mass.). Equal amounts of cell lysates were loaded onto 10% SDS-PAGE gels and transferred to nitrocellulose membranes (Bio-Rad Laboratories, Hercules, Calif.). Blots were probed with each primary antibody overnight at 4° C. and then with species-specific secondary antibodies coupled with horseradish peroxidase for 1 hour at room temperature. Peroxidase activity was detected by SuperSignal Chemiluminescent Substrate (Pierce, Rockford, Ill.). Signals were analyzed and quantified as described (Na, X. et al., EMBO J., 22:4249-4259 (2003)) and results were expressed as mean ±SD."}, "Rho": {"test_system": "Rho", "experiment": "C3 exoenzyme-catalyzed ADP-ribosylation assay (TxB-induced Rho glucosylation)", "format": "cell-based, human", "details": "NCM460 cells; EGFR antibody 20 μg/ml or AG1478 0.5 μM 30 minutes, then TxB 20 nM 1 hour"}, "IL-8 [1]": {"test_system": "IL-8", "details": "cited from earlier work"}, "IL-8 [2]": {"test_system": "IL-8", "details": "cited from earlier work", "remark": "listed apart in the source"}, "EGFR": {"target": "T1, EGFR (Homo sapiens, UniProt P00533)", "T1 construct": "endogenous in cells; host or cells: NCM460 (nontransformed human colonic epithelial cells); HT29 (colonic adenocarcinoma cells)", "T1 sequence (P00533 25-1210)": "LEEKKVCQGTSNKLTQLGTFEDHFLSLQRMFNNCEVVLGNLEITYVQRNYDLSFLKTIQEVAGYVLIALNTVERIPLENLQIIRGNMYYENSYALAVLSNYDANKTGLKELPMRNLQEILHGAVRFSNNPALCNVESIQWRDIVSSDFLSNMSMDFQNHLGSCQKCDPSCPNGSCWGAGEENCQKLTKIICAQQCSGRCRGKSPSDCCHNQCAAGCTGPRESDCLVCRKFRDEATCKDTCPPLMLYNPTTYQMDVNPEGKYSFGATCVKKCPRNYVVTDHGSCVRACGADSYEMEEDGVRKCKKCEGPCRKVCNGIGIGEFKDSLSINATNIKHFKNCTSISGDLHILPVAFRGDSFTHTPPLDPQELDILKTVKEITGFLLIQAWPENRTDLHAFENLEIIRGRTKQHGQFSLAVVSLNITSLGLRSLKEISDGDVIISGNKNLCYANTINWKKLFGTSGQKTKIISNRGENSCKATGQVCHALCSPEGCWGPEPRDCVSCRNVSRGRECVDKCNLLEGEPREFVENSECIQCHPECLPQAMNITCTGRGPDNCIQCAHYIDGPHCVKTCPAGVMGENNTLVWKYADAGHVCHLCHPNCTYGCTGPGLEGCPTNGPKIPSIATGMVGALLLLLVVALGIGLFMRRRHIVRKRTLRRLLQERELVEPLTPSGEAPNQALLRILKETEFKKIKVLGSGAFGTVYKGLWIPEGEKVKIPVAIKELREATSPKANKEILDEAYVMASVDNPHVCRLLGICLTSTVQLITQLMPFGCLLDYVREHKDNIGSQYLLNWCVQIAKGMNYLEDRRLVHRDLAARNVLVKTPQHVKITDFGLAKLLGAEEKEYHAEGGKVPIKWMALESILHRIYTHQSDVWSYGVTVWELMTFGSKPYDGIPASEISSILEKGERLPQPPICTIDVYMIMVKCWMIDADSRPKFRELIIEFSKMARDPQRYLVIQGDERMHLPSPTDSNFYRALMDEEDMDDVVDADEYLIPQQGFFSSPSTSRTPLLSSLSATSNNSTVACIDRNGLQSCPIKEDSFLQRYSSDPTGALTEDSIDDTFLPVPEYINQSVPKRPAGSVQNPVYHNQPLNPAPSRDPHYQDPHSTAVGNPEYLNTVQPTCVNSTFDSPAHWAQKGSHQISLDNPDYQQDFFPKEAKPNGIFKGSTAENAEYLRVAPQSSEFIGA", "experiment": "Western blot of EGFR phosphorylation in colonocytes exposed to C. difficile toxin", "format": "cell-based", "details": "for TxB's activation of EGFR: colonocytes preincubated with BAPTA 20uM or GF109203X 1uM before TxB addition"}, "TGF-α": {"test_system": "TGF-α", "experiment": "TGF-α secretion ELISA", "format": "cell-based, human", "details": "NCM460 cells; GM6001 25 μM 30 minutes prior to TxB for 1 or 3 hours; versus DMSO", "description": "TGF-α secretion from colonocyte cultures was measured by enzyme-linked immunosorbent assay. Briefly, 96-well Nunc-immuno plates (Fisher Scientific) were coated with 0.4 ug/ml of TGF-α antibody diluted in PBS overnight at room temperature. Wells were blocked with PBS containing 1% BSA for 1 hour after washing 3 times with PBST (PBS with 0.1% Twin-20). Fifty μl of conditioned media or serial dilutions of TGF-α in PBS containing 1% BSA were then added to each well. After 2 hours, wells were washed and incubated with 0.3 μg/ml biotin-conjugated anti-TGF-α antibody for 1 hour. Streptavidin-horseradish peroxidase (1:1500) from Amersham Bioscience (Amersham, UK) was added to the wells. Peroxidase activity was measured by TMB Peroxidase Substrate Reagents (KPL Inc, Gaithersburg, Md.)."}},
  "data": [
    {"smiles": "COc1cc2ncnc(Nc3cccc(Cl)c3)c2cc1OC", "note": "[AG1478, tyrphostin AG1478]", "values": [
      {"measurement": "TxB-induced cell rounding", "setting": "NCM460 cells", "value": "neither an EGFR antibody, nor a specific EGFR inhibitor, AG1478, altered"},
      {"measurement": "TxB-mediated IL-8 expression", "setting": "IL-8 promoter", "value": "significantly inhibited"},
      {"measurement": "Activation of ERK1/2 by TxB", "setting": "ERK1/2; NCM460 cells, AG1478 0.2-1.0 uM for 30 minutes, then TxB 20 nM 60 minutes", "value": "completely blocked"},
      {"measurement": "TxB-induced Rho glucosylation", "setting": "Rho", "value": "neither an EGFR antibody, nor a specific EGFR inhibitor, AG1478, altered"},
      {"measurement": "IL-8 production mediated by H. pylori", "setting": "IL-8 [1]", "value": "significantly reduced"},
      {"measurement": "IL-8 production mediated by neurotensin", "setting": "IL-8 [2]", "value": "significantly reduced"}
    ]},
    {"smiles": "O=C(O)CN(CC(=O)O)c1ccccc1OCCOc1ccccc1N(CC(=O)O)CC(=O)O", "note": "[BAPTA]", "values": [
      {"measurement": "TxB's activation of EGFR", "setting": "EGFR", "value": "decreased"},
      {"measurement": "TxB's activation of ERK", "setting": "ERK1/2", "value": "decreased"}
    ]},
    {"smiles": "CN(C)CCCn1cc(C2=C(c3c[nH]c4ccccc34)C(=O)NC2=O)c2ccccc21", "note": "[GF109203X]", "values": [
      {"measurement": "TxB's activation of EGFR", "setting": "EGFR", "value": "decreased"},
      {"measurement": "TxB's activation of ERK", "setting": "ERK1/2", "value": "decreased"}
    ]},
    {"smiles": "CNC(=O)[C@H](Cc1c[nH]c2ccccc12)NC(=O)[C@@H](CC(=O)NO)CC(C)C", "note": "[GM6001]", "values": [
      {"measurement": "Activation of the EGFR induced by TxB", "setting": "EGFR; NCM460 cells, BB94 or GM6001 25 μM 30 minutes prior to TxB 20 nM, versus DMSO at 60 minutes", "value": "significantly inhibited"},
      {"measurement": "Activation of ERK1/2 induced by TxB", "setting": "ERK1/2; NCM460 cells, BB94 3 mg/ml or GM6001 25 μM 30 minutes prior to TxB 20 nM, versus DMSO at 60 minutes", "value": "significantly inhibited"},
      {"measurement": "TxB-induced TGF-α secretion", "setting": "TGF-α", "value": "significantly inhibited"}
    ]},
    {"smiles": "COc1cccc(-c2cc(=O)c3ccccc3o2)c1N", "note": "[PD98059]", "values": [
      {"measurement": "TxB-mediated IL-8 expression", "setting": "IL-8 promoter", "value": "significantly inhibited"}
    ]}
  ]
}
